Data as given in patent publication EP0407582A1, “DERIVATIVES OF TRICHLOROPHOSPHAS[…] INSECTICIDAL, VIRICIDAL, HEMATOCIDAL, FUNGICIDAL AND OVOCIDAL PREPARATIONS BASED ON THEM” (priority 1989, dated 1990).
Where two headings read alike, the source gives them in different places.

Tests used:
[1] = system: domestic flies; assay: Insecticidal activity, laboratory test in gauze boxes; assay type: in vivo; details: 0.25% solution in 5% aqueous glucose solution; death rate estimated in 48 - 72 hours
Experimental: An insecticidal composition based thereon, which was a 0.25% solution of this compound in a 5% aqueous glucose solution, was prepared. The laboratory and large-scale tests of the activity of an insecticidal composition of the invention was conducted on domestic flies. for laboratory tests into the gauze-made boxes (10x10 cm, 6 boxes), there were placed 6-7-day flies of both sexes by 50 individuals per each box. Into 5 boxes there were placed Petri dishes containing the insecticidal composition of the invention. The death rate of flies was estimated-in 48 - 72 hours. A Petri dish containing a 5% aqueous solution of glucose was placed into the control box. The insecticidal activity of the composition, according to the invention, was tested in comparison with a known insecticidal composition containing 0,0-dimethyl-/1-hydroay-2,2-trichloroethyl/phosphonate.

[2] = system: domestic flies; assay: Insecticidal activity, large-scale test in living and industrial premises; assay type: in vivo; details: 0.25% solution with 5% glucose solution, 2-3 dishes per 20 m2; 72 hours
Experimental: The large-scale tests of the activity of the insecticidal composition, according to the invention, was conducted on domestic flies in living and industrial premises. Petri dishes containing a 0.25% aqueous solution of the insecticide, according to the invention, added with a 5% glucose solution, were put at a rate of 2-3 dishes per 20 m2. The .activity of the composition of the invention was estimated by a direct count of dead insects in 72 hours or by using the adhesive tapes, counting the number of flies on the tape prior and after carrying out the test.

[3] = Solubility in water and organic solvents; assay type: physicochemical; details: qualitative, solvents named
[4] = system: Botrytis cinerea; assay: Fungicidal activity, laboratory test on potato-dextrose agar; assay type: cell-based; details: 0.01 % by mass of active principle
Experimental: (§1) Based on the compound, a fungicidal composition was prepared in the form of a 0.01% solution thereof in distilled water. A fungicidal activity of the compound, according to the invention, was tested for inhibition of vegetative fungi growth such as Fusarium oxyporum, Fusarium moniliforme, Botrytis cinerea, Fusarium culmorum, Diplodia zeae, Rhyzoctonia violacea, Verticillium alboartrum, Verturia inaequalis, Rhyzoctonia aderholdii affecting potato, sugar beet, cotton seeds. The tests were conducted either in laboratory or in field conditions. For tests, the composition of the invention containing-0.01 % by mass of an active principle was introduced into Petri dishes with a nutrient medium, specifically, potato-dextrose agar. The phytopathogenic fungi mycelium was plated on the Petri dishes with this agar culture. The phytopathogenic fungi were plated on control dishes with agar culture without adding the composition of the invention. The fungicidal action of the composition, according to the invention, was tested in comparison with the known fungicidal composition based on 2,3-dichloronaphthoquinone-1,4 (phygon), zinc N,N'-ethylene-bis-(dithiocarbamate) (zineb) and thiuram.

[5] = system: Diplodia zeae; assay: as above; assay type: cell-based; details: 0.01 % by mass of active principle
Experimental: as §1

[6] = system: Fusarium culmorum; assay: as above; assay type: cell-based; details: 0.01 % by mass of active principle
Experimental: as §1

[7] = system: Fusarium moniliforme; assay: as above; assay type: cell-based; details: 0.01 % by mass of active principle
Experimental: as §1

[8] = system: Fusarium oxysporum; assay: as above; assay type: cell-based; details: 0.01 % by mass of active principle
Experimental: as §1

[9] = system: Rhyzoctonia aderholdii; assay: as above; assay type: cell-based; details: 0.01 % by mass of active principle
Experimental: as §1

[10] = system: Rhyzoctonia violacea; assay: as above; assay type: cell-based; details: 0.01 % by mass of active principle
Experimental: as §1

[11] = system: Verticillium albo-atrum; assay: as above; assay type: cell-based; details: 0.01 % by mass of active principle
Experimental: as §1

[12] = system: Verturia inaequalis; assay: as above; assay type: cell-based; details: 0.01 % by mass of active principle
Experimental: as §1

[13] = system: Botrytis cinerea; assay: Fungicidal activity, field test on sprayed potato plots; assay type: in vivo
Experimental: (§2) In the field conditions potato plantations of 5 m^2 in size affected by Fusarium oxysporem, Fusarium moniliforme, Betrytis cinerea, Fusarium culmorum, Diplodia Verturia inaequalis, Rhyzoctonia aderholdii were sprayed by a fungicidal composition of the. invention.
(§3) For comparison, a similar spraying of the affected potato-plots was carried out using a. known fungicidal compositions.

[14] = system: Diplodia zeae; assay: as above; assay type: in vivo
Experimental: as §2, §3

[15] = system: Fusarium culmorum; assay: as above; assay type: in vivo
Experimental: as §2, §3

[16] = system: Fusarium moniliforme; assay: as above; assay type: in vivo
Experimental: as §2, §3

[17] = system: Fusarium oxysporum; assay: as above; assay type: in vivo
Experimental: as §2, §3

[18] = system: Rhyzoctonia aderholdii; assay: as above; assay type: in vivo
Experimental: as §2, §3

[19] = system: Verturia inaequalis; assay: as above; assay type: in vivo
Experimental: as §2, §3

[20] = system: Rhyzoctonia violacea; assay: as above; assay type: in vivo
[21] = system: Verticillium albo-atrum; assay: as above; assay type: in vivo
[22] = system: hepatitis B virus
[23] = system: influenza A virus
[24] = system: hepatitis B virus; assay: Virucidal activity, suspension method under protein loading, counter-current immunoelectrophoresis
[25] = system: influenza A virus; assay: microbe, parasite or virus in culture; design: species or system strain of influenza A1 virus
[26] = system: poliomyelitis virus; assay: microbe, parasite or virus in culture; assay type: cell-based, poliomyelitis-II virus

| SMILES | solubility [3] | Inhibition of colony growth of phyto-pathogenic fungi, % Botrytis cinerea laboratory [4] [%] | Inhibition of colony growth of phytopatogenic,fungi,% Diplidia zeae laboratory [5] [%] | Inhibition of colony growth of phytopatogenic,fungi,% Fusarium culmorum laboratory [6] [%] | Inhibition of colony growth of phyto-pathogenic fungi, % Fusarium moniliforme laboratory [7] [%] | Inhibition of colony growth of phyto-pathogenic fungi, % Fusarium oxysporum laboratory [8] [%] | Inhibition of colony growth of phytopathogenic fungi,% Rhyzoctonia aderholdii laboratory [9] [%] | Inhibition of colony growth of phytopatogenic,fungi,% Rhyzoctonia violacea laboratory [10] [%] | Inhibition of colony growth of phytopathogenic fungi,% Verticillium albo-atrum laboratory [11] [%] | Inhibition of colony growth of phytopathogenic fungi,% Verturia inaequalis laboratory [12] [%] | Inhibition of colony growth of phyto-pathogenic fungi, % Botrytis cinerea field [13] [%] | Inhibition of colony growth of phytopatogenic,fungi,% Diplidia zeae field [14] [%] | Inhibition of colony growth of phytopatogenic,fungi,% Fusarium culmorum field [15] [%] | Inhibition of colony growth of phyto-pathogenic fungi, % Fusarium moniliforme field [16] [%] | Inhibition of colony growth of phyto-pathogenic fungi, % Fusarium oxysporum field [17] [%] | Inhibition of colony growth of phytopathogenic fungi,% Rhyzoctonia aderholdii field [18] [%] | Inhibition of colony growth of phytopathogenic fungi,% Verturia inaequalis field [19] [%] | Inhibition of colony growth of phytopatogenic,fungi,% Rhyzoctonia violacea field [20] [%] | Inhibition of colony growth of phytopathogenic fungi,% Verticillium albo-atrum field [21] [%] | further results |
| --- | --- | --- | --- | --- | --- | --- | --- | --- | --- | --- | --- | --- | --- | --- | --- | --- | --- | --- | --- | --- |
| O=C(N=P(OCCCl)(OCCCl)OCCCl)c1ccccc1 [Example 1, tris-(2-chloroethoxy)phosphazobenzoyl] | soluble in water, alcohols, toluene | – | – | – | – | – | – | – | – | – | – | – | – | – | – | – | – | – | – | Death of flies, % Tests laboratory [1]: 86%; Death of flies, % Tests large-scale [2]: 85% |
| O=C1C(Cl)=C(Cl)C(=O)c2ccccc21 [phygon, 2,3-dichloronaphthoquinone-1,4] | – | 38 | 71 | 57 | 35 | 35 | 54 | 34 | 63 | 58 | 32 | 81 | 45 | 32 | 30 | 55 | 61 | 33 | 66 | – |
| O=S(=O)(NCl)c1ccccc1.[Na] [sodium-N-chloro-benzene sulf-amide, sodium N-chlorobenzene sulphonamide] | – | – | – | – | – | – | – | – | – | – | – | – | – | – | – | – | – | – | – | inhibition of viral antigen titers, Hepatitis B virus [22]: 50; inhibition of viral antigen titers, Influenza A virus [23]: 50; killing at 1 % ([24]; 0.25 h, read-out: Death of viruses (%) under exposure, Hepatitis B, 15 min): 0%; killing at 1 % ([24]; 0.5 h, read-out: Death of viruses (%) under exposure, Hepatitis B, 30 min): 12.5%; killing at 1 % ([24]; 1 h, read-out: Death of viruses (%) under exposure, Hepatitis B, 60 min): 25%; killing at 1 % ([25]; 0.25 h, read-out: Death of viruses (%) under exposure, Influenza A, 15 min): 0%; killing at 1 % ([25]; 0.5 h, read-out: Death of viruses (%) under exposure, Influenza A, 30 min): 12.5%; killing at 1 % ([25]; 1 h, read-out: Death of viruses (%) under exposure, Influenza A, 60 min): 25%; killing at 1 % ([26]; 10 min, read-out: Death of viruses (%) under exposure, Poliomyelitis, 10 min): 0%; killing at 1 % ([26]; 0.5 h, read-out: Death of viruses (%) under exposure, Poliomyelitis, 30 min): 12.5%; killing at 1 % ([26]; 1 h, read-out: Death of viruses (%) under exposure, Poliomyelitis, 60 min): 25% |
| O=C(N=P(OC[C@@H](NC(=O)C(Cl)Cl)[C@H](O)c1ccc([N+](=O)[O-])cc1)(OC[C@@H](NC(=O)C(Cl)Cl)[C@H](O)c1ccc([N+](=O)[O-])cc1)OC[C@@H](NC(=O)C(Cl)Cl)[C@H](O)c1ccc([N+](=O)[O-])cc1)c1ccccc1 [Example 4, tris-d/-/-threo-3-para nitrophenyl--2-dichloroacetamido-3-hydroxypropoxy/phosphazobenzoyl] | – | – | – | – | – | – | – | – | – | – | – | – | – | – | – | – | – | – | – | inhibition of viral antigen titers, Hepatitis B virus ([22]; 1% solution in 0.85% sodium chloride, exposure 5, 30, 60 minutes): 100; inhibition of viral antigen titers, Influenza A virus ([23]; 1% solution): 100 |
| O=C(N=P(Nc1ccc(Cl)cc1[N+](=O)[O-])(Nc1ccc(Cl)cc1[N+](=O)[O-])Nc1ccc(Cl)cc1[N+](=O)[O-])c1ccc(Br)cc1 [Example 6, tris--(para-chloro -ortho-nitroanilido)phosphazo-para-bromobenzoyl] | soluble in water, acetone, alcohols, benzene | 100 | 100 | 70 | 100 | 100 | 100 | 100 | 100 | 100 | 100 | 100 | 69 | 100 | 100 | 100 | 100 | 100 | 100 | – |
| CC(C)(OP(=NC(=O)c1ccccc1)(OC(C)(C)C(Cl)(Cl)Cl)OC(C)(C)C(Cl)(Cl)Cl)C(Cl)(Cl)Cl [Example 2, tris-(dimethyl-2,2,2-trichloroethoxy)phosphazobenzoyl] | soluble in water, alcohols, acetone, benzene, toluene | – | – | – | – | – | – | – | – | – | – | – | – | – | – | – | – | – | – | Death of flies, % Tests laboratory [1]: 90%; Death of flies, % Tests large-scale [2]: 88% |
| S=C([S-])NCCNC(=S)[S-].[Zn+2] [zineb, zinc N,N'-ethylene-bis-(dithiocarbamate)] | – | 100 | 100 | 57 | 60 | 58 | 100 | 100 | 80 | 100 | 98 | 100 | 54 | 62 | 59 | 100 | 98 | 100 | 78 | – |
